These results are taken from patent US20220175713A1, “DEPSIDE TRIMERIC COMPOUNDS FOR SKELETAL MUSCLE MODULATION” (SOCIETE DES PRODUITS NESTLE S.A., priority 2019, published 2022).

The test has as its system mouse hindlimb muscles injured with cardiotoxin. Description: In vivo muscle regeneration after intramuscular cardiotoxin injury. The conditions noted are these: mice, oral gavage 100 mg/kg body weight once a day from one week before injury, muscles harvested 5 days after injury, vs. water control, FIG. 6. Here is the method: Early phase of expansion and subsequent phase of myogenic differentiation of Muscle Stem Cells were evaluated by counting the number of Pax7+ cells (A) and myogenin+ cells (B), respectively. Data are expressed as number of cells per area of injured muscle. The size of each newly formed myofiber (C) has been measured based on the expression of the eMHC and laminin that allow to recognize and delineate these nascent myofibers. Results are shown as mean myofiber cross-sectional area (μm^2).
In order to reproduce the physiological process of muscle regeneration that occurs in adult skeletal muscles in response to injury or disease, we performed an intramuscular injection of cardiotoxin into mouse hindlimb muscles. One week prior to the induction of the muscle injury, mice were given by oral gavage gyrophoric acid (at 100 mg/kg body weight) vs. water control. […] Several myogenic markers were then measured. […]
Early phase of expansion and subsequent phase of myogenic differentiation of Muscle Stem Cells were evaluated by counting the number of Pax7+ cells (FIG. 6A) and myogenin+ cells (FIG. 6B), respectively. Data are expressed as number of cells per area of injured muscle. The size of each newly formed myofiber (FIG. 6C) has been measured based on the expression of the eMHC and laminin that allow to recognize and delineate these nascent myofibers. […]

On to `Cc1cc(OC(=O)c2c(C)cc(OC(=O)c3c(C)cc(O)cc3O)cc2O)cc(O)c1C(=O)O` [gyrophoric acid, 4-[4-(2,4-dihydroxy-6-methylbenzoyl)oxy-2-hydroxy-6-methylbenzoyl]oxy-2-hydroxy-6-methylbenzoic acid], for which the “in vivo muscle regeneration process (Pax7+ cells, myogenin+ cells, size of newly formed myofibers)” value is listed as “Able to Promote the In Vivo Muscle Regeneration Process”.
